Reference: US6613718B2, “Aryl ether derivatives and processes for their preparation and herbicidal and desiccant compositions containing them” (Ishihara Sangyo Kaisha, Ltd., priority 2001, dated 2003)

How the values were obtained:
Format in all cases: in vivo
Conditions in all cases: 14 days after application
[1] = system: barnyardgrass (Echinochloa crus-galli, ECHCG); assay: Pre-emerge greenhouse herbicide activity screening, phytotoxicity rating
Outline: (§1)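 Greenhouse screen. Sowing preceded application by one day (pre-emergence) or 8-21 days (post-emergence). Doses spanned 15 to 1000 g ai/ha in acetone. Score at day 14: 0 no injury, 100 total kill.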

[2] = system: velvetleaf (Abutilon theophrasti, ABUTH); assay: as above
Outline: as §1

[3] = system: sicklepod (Cassia obtusifolia, CASOB); assay: as above
Outline: as §1

[4] = system: green foxtail (Setaria viridis, SETVI); assay: as above
Outline: as §1

[5] = system: johnsongrass (Sorghum halepense, SORHA); assay: as above
Outline: as §1

[6] = system: ivyleaf morningglory (Ipomoea hederacea, IPOHE); assay: as above
Outline: as §1

[7] = system: common ragweed (Ambrosia artemisiifolia L., AMBEL); assay: as above
Outline: as §1

[8] = system: large crabgrass (Digitaria sanguinalis, DIGSA); assay: as above
Outline: as §1

[9] = system: lambsquarters (Chenopodium album, CHEAL); assay: as above
Outline: as §1

[10] = system: redroot pigweed (Amaranthus retroflexus, AMARE); assay: as above
Outline: as §1

[11] = system: barnyardgrass (Echinochloa crus-galli, ECHCG); assay: Post-emerge greenhouse herbicide activity screening, phytotoxicity rating
Outline: as §1

[12] = system: velvetleaf (Abutilon theophrasti, ABUTH); assay: as above
Outline: as §1

[13] = system: sicklepod (Cassia obtusifolia, CASOB); assay: as above
Outline: as §1

[14] = system: green foxtail (Setaria viridis, SETVI); assay: as above
Outline: as §1

[15] = system: johnsongrass (Sorghum halepense, SORHA); assay: as above
Outline: as §1

[16] = system: ivyleaf morningglory (Ipomoea hederacea, IPOHE); assay: as above
Outline: as §1

[17] = system: common ragweed (Ambrosia artemisiifolia L., AMBEL); assay: as above
Outline: as §1

[18] = system: large crabgrass (Digitaria sanguinalis, DIGSA); assay: as above
Outline: as §1

[19] = system: lambsquarters (Chenopodium album, CHEAL); assay: as above
Outline: as §1

[20] = system: redroot pigweed (Amaranthus retroflexus, AMARE); assay: as above
Outline: as §1

[21] = system: field corn (Zea mays L., var. Dekalb 535, CORN); assay: Post-emerge greenhouse screening, crop safety / corn selectivity (phytotoxicity rating)
Outline: as §1

[22] = system: soybean (Glycine max L., var. Pella 86, SOY); assay: Pre-emerge greenhouse screening, crop safety (phytotoxicity rating)
Outline: as §1

[23] = system: field corn (Zea mays L., var. Dekalb 535, CORN); assay: as above
Outline: as §1

[24] = system: upland rice (Oryza sp., var.Tebonnet, RICE); assay: as above
Outline: as §1

[25] = system: soybean (Glycine max L., var. Pella 86, SOY); assay: Post-emerge greenhouse screening, crop safety (phytotoxicity rating)
Outline: as §1

[26] = system: upland rice (Oryza sp., var.Tebonnet, RICE); assay: as above
Outline: as §1

## COc1ccccc1Oc1cc(-n2c(=O)cc(C(F)(F)F)n(C)c2=S)c(F)cc1C#N [Compound 1-71]
[1]; 125 g ai/ha
  ECHCG phytotoxicity rating (0-100 scale): 100
[1]; 250 g ai/ha
  ECHCG phytotoxicity rating (0-100 scale): 100
[2]; 125 g ai/ha
  ABUTH phytotoxicity rating (0-100 scale): 100
[2]; 250 g ai/ha
  ABUTH phytotoxicity rating (0-100 scale): 100
[3]; 125 g ai/ha
  CASOB phytotoxicity rating (0-100 scale): 95
[3]; 250 g ai/ha
  CASOB phytotoxicity rating (0-100 scale): 100
[4]; 125 g ai/ha
  SETVI phytotoxicity rating (0-100 scale): 100
[4]; 250 g ai/ha
  SETVI phytotoxicity rating (0-100 scale): 100
[5]; 125 g ai/ha
  SORHA phytotoxicity rating (0-100 scale): 99
[5]; 250 g ai/ha
  SORHA phytotoxicity rating (0-100 scale): 100
[6]; 125 g ai/ha
  IPOHE phytotoxicity rating (0-100 scale): 100
[6]; 250 g ai/ha
  IPOHE phytotoxicity rating (0-100 scale): 100
[7]; 125 g ai/ha
  AMBEL phytotoxicity rating (0-100 scale): 100
[7]; 250 g ai/ha
  AMBEL phytotoxicity rating (0-100 scale): 100
[8]; 125 g ai/ha
  DIGSA phytotoxicity rating (0-100 scale): 100
[8]; 250 g ai/ha
  DIGSA phytotoxicity rating (0-100 scale): 100
[9]; 125 g ai/ha
  CHEAL phytotoxicity rating (0-100 scale): 100
[9]; 250 g ai/ha
  CHEAL phytotoxicity rating (0-100 scale): 100
[10]; 125 g ai/ha
  AMARE phytotoxicity rating (0-100 scale): 100
[10]; 250 g ai/ha
  AMARE phytotoxicity rating (0-100 scale): 100
[11]; 125 g ai/ha
  ECHCG phytotoxicity rating (0-100 scale): 35
[11]; 250 g ai/ha
  ECHCG phytotoxicity rating (0-100 scale): 65
[12]; 125 g ai/ha
  ABUTH phytotoxicity rating (0-100 scale): 100
[12]; 250 g ai/ha
  ABUTH phytotoxicity rating (0-100 scale): 100
[13]; 125 g ai/ha
  CASOB phytotoxicity rating (0-100 scale): 50
[13]; 250 g ai/ha
  CASOB phytotoxicity rating (0-100 scale): 50
[14]; 125 g ai/ha
  SETVI phytotoxicity rating (0-100 scale): 85
[14]; 250 g ai/ha
  SETVI phytotoxicity rating (0-100 scale): 85
[15]; 125 g ai/ha
  SORHA phytotoxicity rating (0-100 scale): 0
[15]; 250 g ai/ha
  SORHA phytotoxicity rating (0-100 scale): 15
[16]; 125 g ai/ha
  IPOHE phytotoxicity rating (0-100 scale): 100
[16]; 250 g ai/ha
  IPOHE phytotoxicity rating (0-100 scale): 100
[17]; 125 g ai/ha
  AMBEL phytotoxicity rating (0-100 scale): 80
[17]; 250 g ai/ha
  AMBEL phytotoxicity rating (0-100 scale): 90
[18]; 125 g ai/ha
  DIGSA phytotoxicity rating (0-100 scale): 50
[18]; 250 g ai/ha
  DIGSA phytotoxicity rating (0-100 scale): 60
[19]; 125 g ai/ha
  CHEAL phytotoxicity rating (0-100 scale): 100
[19]; 250 g ai/ha
  CHEAL phytotoxicity rating (0-100 scale): 100
[20]; 125 g ai/ha
  AMARE phytotoxicity rating (0-100 scale): 100
[20]; 250 g ai/ha
  AMARE phytotoxicity rating (0-100 scale): 100
[21]; 125 g ai/ha
  CORN crop damage, phytotoxicity rating (0-100 scale): 0
[21]; 250 g ai/ha
  CORN crop damage, phytotoxicity rating (0-100 scale): 0
[22]; 125 g ai/ha
  SOY crop damage, phytotoxicity rating (0-100 scale): 45
[22]; 250 g ai/ha
  SOY crop damage, phytotoxicity rating (0-100 scale): 60
[23]; 125 g ai/ha
  CORN crop damage, phytotoxicity rating (0-100 scale): 0
[23]; 250 g ai/ha
  CORN crop damage, phytotoxicity rating (0-100 scale): 5
[24]; 125 g ai/ha
  RICE crop damage, phytotoxicity rating (0-100 scale): 50
[24]; 250 g ai/ha
  RICE crop damage, phytotoxicity rating (0-100 scale): 65
[25]; 125 g ai/ha
  SOY crop damage, phytotoxicity rating (0-100 scale): 50
[25]; 250 g ai/ha
  SOY crop damage, phytotoxicity rating (0-100 scale): 75
[26]; 125 g ai/ha
  RICE crop damage, phytotoxicity rating (0-100 scale): 0
[26]; 250 g ai/ha
  RICE crop damage, phytotoxicity rating (0-100 scale): 0

## COc1ccc(Oc2cc(-n3c(=O)cc(C(F)(F)F)n(C)c3=S)c(F)cc2C#N)cc1 [Compound 1-72]
[1]; 125 g ai/ha
  ECHCG phytotoxicity rating (0-100 scale): 20
[1]; 250 g ai/ha
  ECHCG phytotoxicity rating (0-100 scale): 80
[2]; 125 g ai/ha
  ABUTH phytotoxicity rating (0-100 scale): 100
[2]; 250 g ai/ha
  ABUTH phytotoxicity rating (0-100 scale): 100
[3]; 125 g ai/ha
  CASOB phytotoxicity rating (0-100 scale): 65
[3]; 250 g ai/ha
  CASOB phytotoxicity rating (0-100 scale): 100
[4]; 125 g ai/ha
  SETVI phytotoxicity rating (0-100 scale): 20
[4]; 250 g ai/ha
  SETVI phytotoxicity rating (0-100 scale): 80
[5]; 125 g ai/ha
  SORHA phytotoxicity rating (0-100 scale): 60
[5]; 250 g ai/ha
  SORHA phytotoxicity rating (0-100 scale): 60
[6]; 125 g ai/ha
  IPOHE phytotoxicity rating (0-100 scale): 95
[6]; 250 g ai/ha
  IPOHE phytotoxicity rating (0-100 scale): 100
[7]; 125 g ai/ha
  AMBEL phytotoxicity rating (0-100 scale): 95
[7]; 250 g ai/ha
  AMBEL phytotoxicity rating (0-100 scale): 95
[8]; 125 g ai/ha
  DIGSA phytotoxicity rating (0-100 scale): 95
[8]; 250 g ai/ha
  DIGSA phytotoxicity rating (0-100 scale): 99
[9]; 125 g ai/ha
  CHEAL phytotoxicity rating (0-100 scale): 100
[9]; 250 g ai/ha
  CHEAL phytotoxicity rating (0-100 scale): 100
[10]; 125 g ai/ha
  AMARE phytotoxicity rating (0-100 scale): 100
[10]; 250 g ai/ha
  AMARE phytotoxicity rating (0-100 scale): 100
[11]; 125 g ai/ha
  ECHCG phytotoxicity rating (0-100 scale): 0
[11]; 250 g ai/ha
  ECHCG phytotoxicity rating (0-100 scale): 0
[12]; 125 g ai/ha
  ABUTH phytotoxicity rating (0-100 scale): 80
[12]; 250 g ai/ha
  ABUTH phytotoxicity rating (0-100 scale): 90
[13]; 125 g ai/ha
  CASOB phytotoxicity rating (0-100 scale): 0
[13]; 250 g ai/ha
  CASOB phytotoxicity rating (0-100 scale): 0
[14]; 125 g ai/ha
  SETVI phytotoxicity rating (0-100 scale): 0
[14]; 250 g ai/ha
  SETVI phytotoxicity rating (0-100 scale): 0
[15]; 125 g ai/ha
  SORHA phytotoxicity rating (0-100 scale): 0
[15]; 250 g ai/ha
  SORHA phytotoxicity rating (0-100 scale): 0
[16]; 125 g ai/ha
  IPOHE phytotoxicity rating (0-100 scale): 60
[16]; 250 g ai/ha
  IPOHE phytotoxicity rating (0-100 scale): 60
[17]; 125 g ai/ha
  AMBEL phytotoxicity rating (0-100 scale): 0
[17]; 250 g ai/ha
  AMBEL phytotoxicity rating (0-100 scale): 0
[18]; 125 g ai/ha
  DIGSA phytotoxicity rating (0-100 scale): 0
[18]; 250 g ai/ha
  DIGSA phytotoxicity rating (0-100 scale): 0
[19]; 125 g ai/ha
  CHEAL phytotoxicity rating (0-100 scale): 100
[19]; 250 g ai/ha
  CHEAL phytotoxicity rating (0-100 scale): 100
[20]; 125 g ai/ha
  AMARE phytotoxicity rating (0-100 scale): 80
[20]; 250 g ai/ha
  AMARE phytotoxicity rating (0-100 scale): 90
[21]; 125 g ai/ha
  CORN crop damage, phytotoxicity rating (0-100 scale): 0
[21]; 250 g ai/ha
  CORN crop damage, phytotoxicity rating (0-100 scale): 0
[22]; 125 g ai/ha
  SOY crop damage, phytotoxicity rating (0-100 scale): 0
[22]; 250 g ai/ha
  SOY crop damage, phytotoxicity rating (0-100 scale): 40
[23]; 125 g ai/ha
  CORN crop damage, phytotoxicity rating (0-100 scale): 5
[23]; 250 g ai/ha
  CORN crop damage, phytotoxicity rating (0-100 scale): 8
[24]; 125 g ai/ha
  RICE crop damage, phytotoxicity rating (0-100 scale): 0
[24]; 250 g ai/ha
  RICE crop damage, phytotoxicity rating (0-100 scale): 0
[25]; 125 g ai/ha
  SOY crop damage, phytotoxicity rating (0-100 scale): 0
[25]; 250 g ai/ha
  SOY crop damage, phytotoxicity rating (0-100 scale): 0
[26]; 125 g ai/ha
  RICE crop damage, phytotoxicity rating (0-100 scale): 0
[26]; 250 g ai/ha
  RICE crop damage, phytotoxicity rating (0-100 scale): 0
